Experimental data published in patent US11492385B2, “Long-acting co-agonists of the glucagon and GLP-1 receptors” (Merck Sharp & Dohme Corp., priority 2015, dated 2022).
Starred links: 1 amine or outer side, 2 acyl side, 3 side chain; linkers in the order of their positions; H or OH if unused. Non-standard residues stand in square brackets, D forms with d. Residues, ends and D or L forms follow the SMILES beside them. Groups on a side chain read outwards from the residue. *: point of attachment. Phe(4-CH2NH2) = NCc1ccc(C[C@H](N)C(=O)O)cc1; C18 diacid = O=C(O)CCCCCCCCCCCCCCCCC(=O)*; C17 diacid = O=C(O)CCCCCCCCCCCCCCCC(=O)*; C16 diacid = O=C(O)CCCCCCCCCCCCCCC(=O)*; γGlu = O=C(O)[C@H](CCC(=O)[*:2])N[*:1]; X1 = O=C([C@H]1CCC[C@@H]1N[*:1])[*:2]; Met(O2) = CS(=O)(=O)CC[C@H](N)C(=O)O; αMeD = C[C@](N)(CC(=O)O)C(=O)O; AEEA = NCCOCCOCC(=O)O; Aib = CC(C)(N)C(=O)O

What was measured:
human GCGR = biological target: T1, human GCGR (Homo sapiens, UniProt P47871); experiment: cAMP activity assay, cells expressing human GCGR; assay type: cell-based; details: for EC50: cAMP production, cells expressing human GCGR, assay buffer with or without 20% human serum (not stated which), read-out: GCGR EC50 human; for hGCGR/hGLP1R (hTone): ratio of human GCGR EC50 to human GLP1R EC50
T1 construct: expressed in transfected cells; kept under Blasticidin and Hygromycin selection
T1 sequence (P47871 26-477): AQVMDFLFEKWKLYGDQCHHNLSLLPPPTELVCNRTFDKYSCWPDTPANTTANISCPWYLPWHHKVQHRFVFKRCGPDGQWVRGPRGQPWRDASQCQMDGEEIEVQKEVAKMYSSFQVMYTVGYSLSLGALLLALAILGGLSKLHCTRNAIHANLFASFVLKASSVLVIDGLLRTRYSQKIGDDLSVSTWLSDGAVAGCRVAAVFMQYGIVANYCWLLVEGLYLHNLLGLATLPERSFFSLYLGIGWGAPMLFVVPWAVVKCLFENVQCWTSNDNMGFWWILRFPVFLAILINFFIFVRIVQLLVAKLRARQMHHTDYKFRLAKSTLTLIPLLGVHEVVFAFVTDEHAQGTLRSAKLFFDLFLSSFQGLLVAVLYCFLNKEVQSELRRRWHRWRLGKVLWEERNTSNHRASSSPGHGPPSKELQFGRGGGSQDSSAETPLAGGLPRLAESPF
Outline: (§1)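 Peptides as 10-point titrations from DMSO tested on cells expressing human GLP1R or GCGR. cAMP measured by luminescent kit after overnight room-temperature incubation in the dark. EC50 from four-parameter logistic fit; native GLP-1 and glucagon as controls.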

human GLP1R = biological target: T2, human GLP1R (Homo sapiens, UniProt P43220); experiment: cAMP activity assay, cells expressing human GLP1R; assay type: cell-based; details: cAMP production, assay buffer with or without 20% human serum (not stated which)
T2 construct: expressed in transfected cells; kept under Blasticidin and Hygromycin selection
T2 sequence (P43220 24-463): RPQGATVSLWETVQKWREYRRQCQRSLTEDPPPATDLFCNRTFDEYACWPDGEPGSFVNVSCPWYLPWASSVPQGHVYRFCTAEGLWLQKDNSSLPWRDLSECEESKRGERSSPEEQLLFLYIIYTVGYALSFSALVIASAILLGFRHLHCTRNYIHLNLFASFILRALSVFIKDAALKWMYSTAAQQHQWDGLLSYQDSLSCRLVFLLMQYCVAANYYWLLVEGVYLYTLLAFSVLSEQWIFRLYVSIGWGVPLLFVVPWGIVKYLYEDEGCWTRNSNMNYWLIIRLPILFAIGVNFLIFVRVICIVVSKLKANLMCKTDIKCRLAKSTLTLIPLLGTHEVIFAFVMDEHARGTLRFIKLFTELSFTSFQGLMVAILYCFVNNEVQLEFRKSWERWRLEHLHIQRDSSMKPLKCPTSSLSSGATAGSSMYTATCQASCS
Outline: as §1

Structure (SMILES)	EC50 (human GCGR)	hGCGR/hGLP1R (hTone) (human GCGR)	EC50 (human GLP1R)
CC(C)C[C@H](NC(=O)[C@H](Cc1ccc(O)cc1)NC(=O)[C@H](CCCCN)NC(=O)[C@H](CO)NC(=O)[C@H](Cc1ccc(O)cc1)NC(=O)[C@H](CC(=O)O)NC(=O)[C@H](CO)NC(=O)[C@@H](NC(=O)[C@H](Cc1ccccc1)NC(=O)[C@@H](NC(=O)CNC(=O)[C@H](CCC(N)=O)NC(=O)C(C)(C)NC(=O)[C@@H](N)Cc1c[nH]cn1)[C@@H](C)O)[C@@H](C)O)C(=O)N[C@@H](CC(=O)O)C(=O)N[C@@H](C)C(=O)N[C@@H](CCCNC(=N)N)C(=O)N[C@@H](C)C(=O)N[C@@H](C)C(=O)N[C@@H](CCC(N)=O)C(=O)N[C@@H](Cc1ccc(CNC(=O)COCCOCCNC(=O)COCCOCCNC(=O)CC[C@H](NC(=O)CCCCCCCCCCCCCCCCC(=O)O)C(=O)O)cc1)C(=O)N[C@@H](Cc1ccccc1)C(=O)N[C@H](C(=O)N[C@@H](CCC(N)=O)C(=O)N[C@@H](Cc1c[nH]c2ccccc12)C(=O)N[C@@H](CC(C)C)C(=O)N[C@@H](CC(C)C)C(=O)N[C@@H](CC(=O)O)C(=O)N[C@H](C(N)=O)[C@@H](C)O)C(C)C [compound 32] (H-H[Aib]QGTFTSDYSKYLDARAAQ[Phe(4-CH2NH2)]([AEEA-AEEA-γGlu-C18 diacid])FVQWLLDT-NH2; N-terminus assumed)	0.07 nM	2.52	0.028 nM
CC(C)C[C@H](NC(=O)[C@H](Cc1ccc(O)cc1)NC(=O)[C@H](CCCCN)NC(=O)[C@H](CO)NC(=O)[C@H](Cc1ccc(O)cc1)NC(=O)[C@H](CC(=O)O)NC(=O)[C@H](CO)NC(=O)[C@@H](NC(=O)[C@H](Cc1ccccc1)NC(=O)[C@@H](NC(=O)CNC(=O)[C@H](CCC(N)=O)NC(=O)C(C)(C)NC(=O)[C@@H](N)Cc1c[nH]cn1)[C@@H](C)O)[C@@H](C)O)C(=O)N[C@@H](CC(=O)O)C(=O)N[C@@H](C)C(=O)N[C@@H](CCCNC(=N)N)C(=O)N[C@@H](C)C(=O)N[C@@H](C)C(=O)N[C@@H](CCC(N)=O)C(=O)N[C@@H](CCCCNC(=O)COCCOCCNC(=O)COCCOCCNC(=O)CC[C@H](NC(=O)CCCCCCCCCCCCCCCCC(=O)O)C(=O)O)C(=O)N[C@@H](Cc1ccccc1)C(=O)N[C@H](C(=O)N[C@@H](CCC(N)=O)C(=O)N[C@@H](Cc1c[nH]c2ccccc12)C(=O)N[C@@H](CC(C)C)C(=O)N[C@@H](CCS(C)(=O)=O)C(=O)N[C@@H](CC(=O)O)C(=O)N[C@H](C(N)=O)[C@@H](C)O)C(C)C [compound 30] (H-H[Aib]QGTFTSDYSKYLDARAAQK([AEEA-AEEA-γGlu-C18 diacid])FVQWL[Met(O2)]DT-NH2)	0.1 nM	1.66	0.06 nM
CC(C)C[C@H](NC(=O)[C@H](Cc1ccc(O)cc1)NC(=O)[C@H]1CCC[C@@H]1NC(=O)[C@H](CO)NC(=O)[C@H](Cc1ccc(O)cc1)NC(=O)[C@H](CC(=O)O)NC(=O)[C@H](CO)NC(=O)[C@@H](NC(=O)[C@H](Cc1ccccc1)NC(=O)[C@@H](NC(=O)CNC(=O)[C@H](CCC(N)=O)NC(=O)C(C)(C)NC(=O)[C@@H](N)Cc1c[nH]cn1)[C@@H](C)O)[C@@H](C)O)C(=O)N[C@@H](CC(=O)O)C(=O)NC(C)(C)C(=O)N[C@@H](CCCNC(=N)N)C(=O)N[C@@H](C)C(=O)N[C@@H](C)C(=O)N[C@@H](CCCCNC(=O)COCCOCCNC(=O)COCCOCCNC(=O)CC[C@H](NC(=O)CCCCCCCCCCCCCCCCC(=O)O)C(=O)O)C(=O)N[C@@H](CC(=O)O)C(=O)N[C@@H](Cc1ccccc1)C(=O)N[C@H](C(=O)N[C@H]1CCC[C@@H]1C(=O)N[C@@H](Cc1c[nH]c2ccccc12)C(=O)N[C@@H](CC(C)C)C(=O)N[C@@H](CCS(C)(=O)=O)C(=O)N[C@@H](CC(=O)O)C(=O)N[C@H](C(N)=O)[C@@H](C)O)C(C)C [compound 34] (H-H[Aib]QGTFTSDYS[X1]YLD[Aib]RAAK([AEEA-AEEA-γGlu-C18 diacid])DFV[X1]WL[Met(O2)]DT-NH2; N-terminus assumed)	0.64 nM	0.53	1.2 nM
CC(C)C[C@H](NC(=O)[C@H](Cc1ccc(O)cc1)NC(=O)[C@H](CCCCN)NC(=O)[C@H](CO)NC(=O)[C@H](Cc1ccc(O)cc1)NC(=O)[C@H](CC(=O)O)NC(=O)[C@H](CO)NC(=O)[C@@H](NC(=O)[C@H](Cc1ccccc1)NC(=O)[C@@H](NC(=O)CNC(=O)[C@H](CCC(N)=O)NC(=O)C(C)(C)NC(=O)[C@@H](N)Cc1c[nH]cn1)[C@@H](C)O)[C@@H](C)O)C(=O)N[C@@H](CC(=O)O)C(=O)N[C@@H](C)C(=O)N[C@@H](CCCNC(=N)N)C(=O)N[C@@H](C)C(=O)N[C@@H](C)C(=O)N[C@@H](CCCCNC(=O)COCCOCCNC(=O)COCCOCCNC(=O)CC[C@H](NC(=O)CCCCCCCCCCCCCCCCC(=O)O)C(=O)O)C(=O)N[C@@H](CC(=O)O)C(=O)N[C@@H](Cc1ccccc1)C(=O)N[C@H](C(=O)N[C@@H](CCC(N)=O)C(=O)N[C@@H](Cc1c[nH]c2ccccc12)C(=O)N[C@@H](CC(C)C)C(=O)N[C@@H](CCS(C)(=O)=O)C(=O)N[C@@](C)(CC(=O)O)C(=O)N[C@H](C(N)=O)[C@@H](C)O)C(C)C [compound 74] (H-H[Aib]QGTFTSDYSKYLDARAAK([AEEA-AEEA-γGlu-C18 diacid])DFVQWL[Met(O2)][αMeD]T-NH2)	0.86 nM	0.6	1.39 nM
CC(C)C[C@H](NC(=O)[C@H](Cc1ccc(O)cc1)NC(=O)[C@H](CCCCN)NC(=O)[C@H](CO)NC(=O)[C@H](Cc1ccc(O)cc1)NC(=O)[C@H](CC(=O)O)NC(=O)[C@H](CO)NC(=O)[C@@H](NC(=O)[C@H](Cc1ccccc1)NC(=O)[C@@H](NC(=O)CNC(=O)[C@H](CCC(N)=O)NC(=O)C(C)(C)NC(=O)[C@@H](N)Cc1c[nH]cn1)[C@@H](C)O)[C@@H](C)O)C(=O)N[C@@H](CC(=O)O)C(=O)N[C@@H](C)C(=O)N[C@@H](CCCNC(=N)N)C(=O)N[C@@H](C)C(=O)N[C@@H](C)C(=O)N[C@@H](CCC(N)=O)C(=O)N[C@@H](CCCCNC(=O)COCCOCCNC(=O)COCCOCCNC(=O)CC[C@H](NC(=O)CCCCCCCCCCCCCCC(=O)O)C(=O)O)C(=O)N[C@@H](Cc1ccccc1)C(=O)N[C@H](C(=O)N[C@@H](CCC(N)=O)C(=O)N[C@@H](Cc1c[nH]c2ccccc12)C(=O)N[C@@H](CC(C)C)C(=O)N[C@@H](CCS(C)(=O)=O)C(=O)N[C@@H](CC(=O)O)C(=O)N[C@H](C(N)=O)[C@@H](C)O)C(C)C [compound 20] (H-H[Aib]QGTFTSDYSKYLDARAAQK([AEEA-AEEA-γGlu-C16 diacid])FVQWL[Met(O2)]DT-NH2)	0.03 nM	0.98	0.03 nM
CC(C)C[C@H](NC(=O)[C@H](Cc1ccc(O)cc1)NC(=O)[C@H](CCCCN)NC(=O)[C@H](CO)NC(=O)[C@H](Cc1ccc(O)cc1)NC(=O)[C@H](CC(=O)O)NC(=O)[C@H](CO)NC(=O)[C@@H](NC(=O)[C@H](Cc1ccccc1)NC(=O)[C@@H](NC(=O)CNC(=O)[C@H](CCC(N)=O)NC(=O)C(C)(C)NC(=O)[C@@H](N)Cc1c[nH]cn1)[C@@H](C)O)[C@@H](C)O)C(=O)N[C@@H](CC(=O)O)C(=O)N[C@@H](C)C(=O)N[C@@H](CCCNC(=N)N)C(=O)N[C@@H](C)C(=O)N[C@@H](C)C(=O)N[C@@H](CCC(N)=O)C(=O)N[C@@H](CCCCNC(=O)COCCOCCNC(=O)COCCOCCNC(=O)CC[C@H](NC(=O)CCCCCCCCCCCCCCCC(=O)O)C(=O)O)C(=O)N[C@@H](Cc1ccccc1)C(=O)N[C@H](C(=O)N[C@@H](CCC(N)=O)C(=O)N[C@@H](Cc1c[nH]c2ccccc12)C(=O)N[C@@H](CC(C)C)C(=O)N[C@@H](CCS(C)(=O)=O)C(=O)N[C@@H](CC(=O)O)C(=O)N[C@H](C(N)=O)[C@@H](C)O)C(C)C [compound 48] (H-H[Aib]QGTFTSDYSKYLDARAAQK([AEEA-AEEA-γGlu-C17 diacid])FVQWL[Met(O2)]DT-NH2)	0.05 nM	1.10	0.05 nM
CC(C)C[C@H](NC(=O)[C@H](Cc1ccc(O)cc1)NC(=O)[C@H](CCCCN)NC(=O)[C@H](CO)NC(=O)[C@H](Cc1ccc(O)cc1)NC(=O)[C@H](CC(=O)O)NC(=O)[C@H](CO)NC(=O)[C@@H](NC(=O)[C@H](Cc1ccccc1)NC(=O)[C@@H](NC(=O)CNC(=O)[C@H](CCC(N)=O)NC(=O)C(C)(C)NC(=O)[C@@H](N)Cc1c[nH]cn1)[C@@H](C)O)[C@@H](C)O)C(=O)N[C@@H](CC(=O)O)C(=O)N[C@@H](C)C(=O)N[C@@H](CCCNC(=N)N)C(=O)N[C@@H](C)C(=O)N[C@@H](C)C(=O)N[C@@H](CCCCNC(=O)COCCOCCNC(=O)COCCOCCNC(=O)CC[C@H](NC(=O)CCCCCCCCCCCCCCCCC(=O)O)C(=O)O)C(=O)N[C@@H](CC(=O)O)C(=O)N[C@@H](Cc1ccccc1)C(=O)N[C@H](C(=O)N[C@@H](CCC(N)=O)C(=O)N[C@@H](Cc1c[nH]c2ccccc12)C(=O)N[C@@H](CC(C)C)C(=O)N[C@@H](CCS(C)(=O)=O)C(=O)N[C@@H](CC(=O)O)C(=O)N[C@H](C(N)=O)[C@@H](C)O)C(C)C [compound 29] (H-H[Aib]QGTFTSDYSKYLDARAAK([AEEA-AEEA-γGlu-C18 diacid])DFVQWL[Met(O2)]DT-NH2; N-terminus assumed)	0.79 nM	2.93	0.27 nM
